# Assay results published in patent US20230174523A1, “BENZENESULFONAMIDE DERIVATIVES AS TRAP1 MODULATORS AND USES THEREOF” (Amathus Therapeutics, Inc., priority 2020, published 2023).
# Biological target: T1, TRAP1 enzyme (Homo sapiens, UniProt Q12931)
# T1 sequence (Q12931 60-704): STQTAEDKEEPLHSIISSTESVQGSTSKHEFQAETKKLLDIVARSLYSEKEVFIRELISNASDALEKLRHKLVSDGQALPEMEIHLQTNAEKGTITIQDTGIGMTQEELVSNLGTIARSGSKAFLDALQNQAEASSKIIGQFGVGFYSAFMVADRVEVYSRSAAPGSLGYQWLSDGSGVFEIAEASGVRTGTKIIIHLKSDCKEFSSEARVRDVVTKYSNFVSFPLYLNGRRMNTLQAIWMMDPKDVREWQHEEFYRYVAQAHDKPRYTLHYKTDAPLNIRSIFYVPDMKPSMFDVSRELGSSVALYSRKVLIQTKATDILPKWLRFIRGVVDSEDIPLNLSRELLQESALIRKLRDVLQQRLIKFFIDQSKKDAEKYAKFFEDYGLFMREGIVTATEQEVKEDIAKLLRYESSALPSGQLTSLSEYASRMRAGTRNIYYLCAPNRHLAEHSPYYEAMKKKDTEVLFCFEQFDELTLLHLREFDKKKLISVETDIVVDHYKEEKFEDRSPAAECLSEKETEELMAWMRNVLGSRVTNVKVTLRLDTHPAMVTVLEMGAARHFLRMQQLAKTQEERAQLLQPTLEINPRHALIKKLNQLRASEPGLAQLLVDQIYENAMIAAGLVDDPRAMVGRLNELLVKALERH
# Assay: ADP Glo assay of TRAP1 ATPase activity
# Type: biochemical
# Conditions: for EC50: TRAP1 ATPase activation, 150 nM Trap1, 20 μM ATP, geometric mean, read-out: ADP GLO DRC: GeoMean EC50; for Emax: read-out: ADP GLO DRC: Mean Emax
# Procedure: Potency of test compounds to modulate the ATPase activity of TRAP1 enzyme was evaluated using ADP Glo assay. The assay is based on quantification of the ADP generated from ATP in the ATPase reaction. The assay is performed in two steps: first, after the ATPase reaction, an equal volume of ADP-Glo™ Reagent is added to terminate the ATPase reaction and deplete the remaining ATP. Second, the Kinase Detection Reagent is added to simultaneously convert ADP to ATP and allow the newly synthesized ATP to be measured using a luciferase/luciferin reaction.
# All the assays were carried out in a 384-well Proxiplate. The buffer used was 25 mM Pipes pH-7.5, 40 mM KCl, 0.05 mM MgCl2, 0.025% BSA, 0.316 mM EGTA, 0.003% Empigen, 0.01% Igepal. 150 nM Trap1 enzyme was incubated with various concentrations of the test compound (0.79 μM-100 μM) at 37° C. for 30 mins (except in blank wells). 20 μM ATP was added to each well to start the reaction. The plate was spun for 1 min at 1200 rpm and then incubated at 37° C. for 60 mins. 5 μl of ADP Glo reagent was added to all the wells and spun the plate for 1 min at 1200 rpm and kept it on a shaker at ambient temperature for 60 mins. 10 μl of kinase detection mix was added to all the wells and the plate was read for Luminescence at 495 nm. The amount of ADP released was estimated from ATP/ADP standard curve generated at the same experimental conditions. Emax (Maximal percent activation) and EC50 (concentration for half maximal activation) were estimated by fitting the dose response data to a sigmoidal curve fitting equation using Graphpad Prism software V. 8.
EC50 [µM],Emax [%],Compound
10 to 20,> 300,COc1ccc(NC(=O)c2ccc3nc(C)sc3c2)cc1S(=O)(=O)Nc1c(C)cccc1C [Compound 1231]
10 to 20,160 to 199,COc1ccc(NC(=O)c2ncc(-c3ccccc3)o2)cc1S(=O)(=O)Nc1sc2c(c1C#N)CCCC2 [Compound 1671]
10 to 20,160 to 199,COc1ccc(NC(=O)c2ncc(-c3ccccc3)o2)cc1S(=O)(=O)Nc1c(C)cccc1C#N [Compound 1357]
20 to 100,160 to 199,Cn1ncc(I)c1C(=O)Nc1ccc(F)c(S(=O)(=O)Nc2ccc(Cl)cc2)c1 [Compound 689]
< 10,160 to 199,COc1cc(C#N)cc(C(=O)Nc2ccc(OC)c(S(=O)(=O)Nc3c(C)cccc3C)c2)c1 [Compound 1090]
20 to 100,200 to 300,CCCn1cc(C(=O)Nc2ccc(F)c(S(=O)(=O)Nc3ccc(Cl)cc3)c2)cn1 [Compound 683]
20 to 100,> 300,COc1ccc(NC(=O)c2ccc3nccnc3c2)cc1S(=O)(=O)Nc1c(C)cccc1C [Compound 1063]
< 10,160 to 199,COc1ccc(NC(=O)c2cnc(-c3ccccc3)s2)cc1S(=O)(=O)Nc1c(C)cccc1C [Compound 467]
10 to 20,200 to 300,COc1ccc(NC(=O)c2cccc3ncsc23)cc1S(=O)(=O)Nc1c(C)cccc1C [Compound 1227]
< 10,200 to 300,COc1ccc(NC(=O)c2cnc(-c3ccccc3)[nH]2)cc1S(=O)(=O)Nc1c(C)cccc1C [Compound 408]
10 to 20,160 to 199,COc1ccc(NC(=O)c2ncc(-c3ccccc3)o2)cc1S(=O)(=O)Nc1sc(C)c(C)c1C#N [Compound 1672]
< 10,160 to 199,COc1ccc(NC(=O)c2cn(C(C)C)cc2C(F)(F)F)cc1S(=O)(=O)Nc1c(C)cccc1C [Compound 1103]
< 10,123 to 159,COc1ccc(NC(=O)c2sc(-c3cccs3)nc2C)cc1S(=O)(=O)Nc1c(C)cccc1C [Compound 1156]
10 to 20,200 to 300,COc1ccc(NC(=O)c2cccc(C#N)c2Cl)cc1S(=O)(=O)Nc1c(C)cccc1C [Compound 1100]
< 10,200 to 300,COc1ccc(NC(=O)c2cccc(-c3noc(C)n3)c2)cc1S(=O)(=O)Nc1c(C)cccc1C [Compound 1243]
< 10,160 to 199,COc1ccc(NC(=O)c2cccc(-c3ccccn3)c2)cc1S(=O)(=O)Nc1c(C)cccc1C [Compound 1271]
< 10,160 to 199,COc1ccc(NC(=O)c2cc(N3CCCC3)ccn2)cc1S(=O)(=O)Nc1c(C)cccc1C [Compound 1077]
20 to 100,160 to 199,COc1ccc(NC(=O)c2cccc(-c3cncnc3)c2)cc1S(=O)(=O)Nc1c(C)cccc1C [Compound 1248]
20 to 100,160 to 199,"COc1ccc(NC(=O)c2cc3ccccc3[n+](C)c2)cc1S(=O)(=O)Nc1c(C)cccc1C [Compound 1356, 3-((3-(N-(2,6-dimethylphenyl)sulfamoyl)-4-methoxyphenyl)carbamoyl)-1-methylquinolin-1-ium]"
20 to 100,160 to 199,CCS(=O)(=O)c1ccc(OC)c(C(=O)Nc2ccc(OC)c(S(=O)(=O)Nc3c(C)cccc3C)c2)c1 [Compound 1254]
10 to 20,160 to 199,COc1ccc(NC(=O)c2c(C(F)(F)F)coc2C)cc1S(=O)(=O)Nc1c(C)cccc1C [Compound 1111]
< 10,160 to 199,COc1ccc(NC(=O)c2cnn(-c3ccc(Cl)cc3)c2C)cc1S(=O)(=O)Nc1c(C)cccc1C [Compound 1110]
10 to 20,200 to 300,COc1ccc(NC(=O)c2cncc(Br)c2C)cc1S(=O)(=O)Nc1c(C)cccc1C [Compound 1107]
20 to 100,123 to 159,COc1ccc(NC(=O)c2ncc(-c3cc(F)c(F)c(F)c3)o2)cc1S(=O)(=O)Nc1c(C)csc1C [Compound 2519]

EC50 [µM],Emax [%],Compound
< 10,200 to 300,COc1ccc(NC(=O)c2cccc3nc(C)sc23)cc1S(=O)(=O)Nc1c(C)cccc1C [Compound 1017]
20 to 100,160 to 199,COc1ccc(NC(=O)c2ccnc(Cl)c2C)cc1S(=O)(=O)Nc1c(C)cccc1C [Compound 1067]
< 10,123 to 159,COc1ccc(NC(=O)c2cc(F)cc(Br)c2C)cc1S(=O)(=O)Nc1c(C)cccc1C [Compound 1065]
< 10,200 to 300,COc1ccc(NC(=O)c2cccc3ccoc23)cc1S(=O)(=O)Nc1c(C)cccc1C [Compound 1094]
< 10,160 to 199,COc1ccc(NC(=O)c2ccc(-n3cccn3)cc2Cl)cc1S(=O)(=O)Nc1c(C)cccc1C [Compound 1019]
20 to 100,200 to 300,Cc1cc(C(=O)Nc2ccc(F)c(S(=O)(=O)Nc3ccc(Cl)cc3)c2)c2c(C)noc2n1 [Compound 736]
10 to 20,123 to 159,Cc1cc(C(=O)Nc2ccc(F)c(S(=O)(=O)Nc3ccc(Cl)cc3)c2)n(Cc2ccc(F)cc2)n1 [Compound 776]
< 10,200 to 300,COc1ccc(NC(=O)c2cnc(-c3ccccc3C)[nH]2)cc1S(=O)(=O)Nc1ccc(Cl)cc1 [Compound 1971]
10 to 20,200 to 300,COc1ccc(NC(=O)c2cc3cc(Br)cnc3s2)cc1S(=O)(=O)Nc1c(C)cccc1C [Compound 1020]
20 to 100,160 to 199,COc1ccc(NC(=O)c2cnoc2C2CC2)cc1S(=O)(=O)Nc1c(C)cccc1C [Compound 1160]
< 10,200 to 300,COc1ccc(NC(=O)c2cccc3ccn(C)c23)cc1S(=O)(=O)Nc1c(C)cccc1C [Compound 1060]
20 to 100,123 to 159,COc1ccc(NC(=O)c2ccc(Br)nc2F)cc1S(=O)(=O)Nc1c(C)cccc1C [Compound 1131]
10 to 20,160 to 199,COc1ccc(NC(=O)c2cccc3nccnc23)cc1S(=O)(=O)Nc1c(C)cccc1C [Compound 1251]
< 10,200 to 300,CCc1ccnc(C(=O)Nc2ccc(OC)c(S(=O)(=O)Nc3c(C)cccc3C)c2)c1 [Compound 1151]
20 to 100,123 to 159,COc1ccc(NC(=O)c2ncc(-c3ccccc3)o2)cc1S(=O)(=O)Nc1c(C)cc(C)nc1C [Compound 1575]
10 to 20,200 to 300,COc1ccc(NC(=O)c2cnn(-c3ccccc3)c2)cc1S(=O)(=O)Nc1c(C)cccc1C [Compound 1292]
20 to 100,123 to 159,CC(C)(C)OC(=O)c1ccccc1C(=O)Nc1ccc(F)c(S(=O)(=O)Nc2ccc(Cl)cc2)c1 [Compound 694]
< 10,160 to 199,"COc1ccc(NC(=O)c2cnc(-c3ccccc3)[nH]2)cc1S(=O)(=O)N(CCCCCCN)c1ccc(Br)cc1 [Compound 454, N-(3-(N-(6-aminohexyl)-N-(4-bromophenyl)sulfamoyl)-4-methoxyphenyl)-2-phenyl-1H-imidazole-5-carboxamide]"
20 to 100,> 300,COc1ccc(NC(=O)c2ccc3cnn(C)c3c2)cc1S(=O)(=O)Nc1c(C)cccc1C [Compound 1370]
10 to 20,200 to 300,COc1ccc(NC(=O)c2ccn(-c3ccccc3)n2)cc1S(=O)(=O)Nc1c(C)cccc1C [Compound 1071]
< 10,160 to 199,COc1ccc(NC(=O)c2c[nH]c(-c3c(F)cccc3F)n2)cc1S(=O)(=O)Nc1ccc(Br)cc1 [Compound 1328]
< 10,123 to 159,COc1ccc(NC(=O)c2cc(C)cc(F)c2F)cc1S(=O)(=O)Nc1c(C)cccc1C [Compound 1164]
10 to 20,200 to 300,COc1ccc(NC(=O)c2cccc(N3CCCC3=O)c2)cc1S(=O)(=O)Nc1c(C)cccc1C [Compound 1123]

Compound,EC50 [µM],Emax [%]
COc1ccc(NC(=O)c2csc3c2C2CCN3CC2)cc1S(=O)(=O)Nc1c(C)cccc1C [Compound 1945],10 to 20,160 to 199
